Source: patent publication US6818622B2 (Darwin Discovery Ltd., priority 1997, dated 2004)

Columns and labels:
stromelysin-1 (MMP-3) = stromelysin-1 (MMP-3) (Homo sapiens, UniProt P08254); test: MMP inhibition activity fluorimetric assay (Example A), MMP-3; format: biochemical; conditions: fluorimetric substrate 10 μM, 37° C.
Method: (§1) The potency of inhibitors of collagenase-1 (MMP-1), collagenase-2 (MMP-8), collagenase-3 (MMP-13), gelatinase-A (MMP-2), gelatinase-B (MMP-9) and stromelysin-1 (MMP-3) is determined using the following procedure:
(§2) Inhibitors are dissolved in dimethyl sulphoxide containing 0.02% β-mercaptoethanol, and serial dilutions are prepared. Activated enzyme is incubated in assay buffer containing 50 mM Tris, pH 7.4, 5 mM CaCl2, 0.002% NaN3 and Brij 35 in the presence and absence of inhibitor. Samples are preincubated at 37° C. for 15 minutes before the addition of the fluorimetric substrate (Mca-Pro-Leu-Gly-Leu-Dpa-Ala-Arg-NH2) to a final concentration of 10 μM.
(§3) The enzyme activity is compared to activity in a control devoid of inhibitor.

[1] = system: L-selectin shedding by peripheral blood mononuclear cells (PBMC); test: Inhibition of L-selectin shedding (Example C); format: cell-based; conditions: 20 min, read-out: Example C: inhibitor concentration effecting 50% inhibition of the shedding of L-selectin, PBMC stimulated with PMA, ELISA
Method: (§4) An assay of L-selectin shedding by peripheral blood mononuclear cells (PBMC) is conducted as follows: PBMC are isolated from buffy coats by standard procedures using Ficoll. A 100 μM solution of the inhibitor being tested or dilutions thereof is incubated for 20 min at 37° C. in an atmosphere of 5% CO2 with 4×10^6/ml PBMC stimulated with PMA. The cells are centrifuged down and the supernatants tested for sL-selectin using a commercially available ELISA kit. The activity in the presence of 100 μM inhibitor or dilutions thereof is compared to activity in a control devoid of inhibitor.

gelatinase-A (MMP-2) = biological target: T1, gelatinase-A (MMP-2) (Homo sapiens, UniProt P08253); test: MMP inhibition activity fluorimetric assay (Example A), MMP-2; format: biochemical; conditions: fluorimetric substrate 10 μM, 37° C.
T1 sequence (P08253 110-660): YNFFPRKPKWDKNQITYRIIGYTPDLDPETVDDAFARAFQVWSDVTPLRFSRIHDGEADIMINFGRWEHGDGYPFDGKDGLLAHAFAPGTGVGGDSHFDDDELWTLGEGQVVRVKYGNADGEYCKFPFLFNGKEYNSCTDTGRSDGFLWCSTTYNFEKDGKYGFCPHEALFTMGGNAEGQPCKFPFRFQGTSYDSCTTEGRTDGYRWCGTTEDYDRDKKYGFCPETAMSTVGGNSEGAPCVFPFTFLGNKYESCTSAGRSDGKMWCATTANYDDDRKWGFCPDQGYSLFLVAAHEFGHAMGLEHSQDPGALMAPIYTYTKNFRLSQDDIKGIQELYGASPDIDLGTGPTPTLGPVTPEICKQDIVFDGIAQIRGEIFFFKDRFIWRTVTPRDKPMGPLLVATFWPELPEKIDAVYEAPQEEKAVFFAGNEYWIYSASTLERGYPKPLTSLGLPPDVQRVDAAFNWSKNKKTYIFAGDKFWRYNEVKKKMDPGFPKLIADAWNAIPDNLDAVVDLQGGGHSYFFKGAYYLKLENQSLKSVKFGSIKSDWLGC
Method: as §1, §2, §3

collagenase-1 (MMP-1) = biological target: T2, collagenase-1 (MMP-1) (Homo sapiens, UniProt P03956); test: MMP inhibition activity fluorimetric assay (Example A), MMP-1; format: biochemical; conditions: fluorimetric substrate 10 μM, 37° C.
T2 sequence (P03956 100-469): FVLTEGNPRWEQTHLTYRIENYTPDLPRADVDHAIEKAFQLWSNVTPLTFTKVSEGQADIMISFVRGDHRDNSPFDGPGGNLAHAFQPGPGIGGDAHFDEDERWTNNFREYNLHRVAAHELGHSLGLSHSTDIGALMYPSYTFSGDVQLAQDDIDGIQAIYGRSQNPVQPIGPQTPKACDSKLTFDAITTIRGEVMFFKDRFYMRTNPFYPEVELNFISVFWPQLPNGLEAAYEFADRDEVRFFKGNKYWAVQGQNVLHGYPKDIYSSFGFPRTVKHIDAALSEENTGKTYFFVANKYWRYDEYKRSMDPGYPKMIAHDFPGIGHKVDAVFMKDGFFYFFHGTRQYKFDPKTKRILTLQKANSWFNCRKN
Method: as §1, §2, §3

gelatinase-B (MMP-9) = gelatinase-B (MMP-9) (Homo sapiens, UniProt P14780); test: MMP inhibition activity fluorimetric assay (Example A), MMP-9; format: biochemical; conditions: fluorimetric substrate 10 μM, 37° C.
Chain of gelatinase-B (MMP-9) (P14780 107-707 limits assumed, species assumed): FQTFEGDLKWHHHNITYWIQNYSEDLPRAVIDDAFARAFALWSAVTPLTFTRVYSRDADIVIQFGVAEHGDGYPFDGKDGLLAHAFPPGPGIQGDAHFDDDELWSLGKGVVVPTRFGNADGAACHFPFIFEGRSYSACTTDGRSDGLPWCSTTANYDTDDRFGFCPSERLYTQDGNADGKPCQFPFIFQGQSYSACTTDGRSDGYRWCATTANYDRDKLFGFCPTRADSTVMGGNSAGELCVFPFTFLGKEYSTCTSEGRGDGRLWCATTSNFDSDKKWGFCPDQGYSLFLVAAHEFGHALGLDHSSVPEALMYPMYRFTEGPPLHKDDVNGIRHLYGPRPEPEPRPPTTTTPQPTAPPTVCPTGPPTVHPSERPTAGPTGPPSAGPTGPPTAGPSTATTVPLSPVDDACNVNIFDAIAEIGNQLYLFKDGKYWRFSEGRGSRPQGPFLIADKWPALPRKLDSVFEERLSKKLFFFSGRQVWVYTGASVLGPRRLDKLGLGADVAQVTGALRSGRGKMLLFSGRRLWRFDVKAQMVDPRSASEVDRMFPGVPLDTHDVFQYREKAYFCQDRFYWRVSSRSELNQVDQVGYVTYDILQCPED
Method: as §1, §2, §3

[2] = system: sIL-6R shedding by HL-60 cells; test: Inhibition of IL-6R shedding (Example E); format: cell-based; conditions: Homo sapiens, read-out: Example E: inhibitor concentration effecting 50% inhibition of the shedding of IL-6R; HL-60 cells stimulated with PMA, 24 h, ELISA
Method: as §4, with “sIL-6R” for “L-selectin”, “HL-60” for “peripheral blood mononuclear”, “cells” for “cells (PBMC)”, “24 h” for “20 min”, “2×10^6/ml HL-60 cells” for “4×10^6/ml PBMC”, “sIl-6R” for “sL-selectin”

collagenase-3 (MMP-13) = collagenase-3 (MMP-13) (Homo sapiens, UniProt P45452); test: MMP inhibition activity fluorimetric assay (Example A), MMP-13; format: biochemical; conditions: fluorimetric substrate 10 μM, 37° C.
Method: as §1, §2, §3

[3] = system: marmoset joints and tendons; test: Marmoset tendonitis study; format: in vivo; conditions: oral dosing at 30 and 100 mg/kg for 3 months; for Plasma levels on repeated plasma sampling: up to 9 h post-dose
Method: Specific examples of compounds showing the desired profile are those of Examples 1 and 2 and cpd. 3 (see below). These three compounds have been tested in the marmoset tendonitis study. This procedure for this study has been defined by Wojtowicz-Praga et al, supra. The study was performed with oral dosing at 30 and 100 mg/kg for 3 months. […] See Hooper et al, supra.

[4] = system: production of TNFα by peripheral blood mononuclear cells (PBMC); test: Inhibition of TNFα production (Example B); format: cell-based; conditions: read-out: Example B: inhibitor concentration effecting 50% inhibition of the production of TNFα; PBMC stimulated with LPS, 18 hours, ELISA
Method: PBMC are isolated from buffy coats by standard procedures using Ficoll. […] After 18 hours the supernatant is assayed for the levels of TNFα using a commercially available ELISA kit. The activity in the presence of 100 μM inhibitor or dilutions thereof is compared to activity in a control devoid of inhibitor.

[5] = system: shedding of TNF RII by THP-1 cells (human monocytes); test: Inhibition of TNF RII shedding (Example F); format: cell-based; conditions: read-out: Example F: inhibitor concentration effecting 50% inhibition of the shedding of TNF RII, THP-1 cells stimulated with LPS, 18 hours, ELISA
Method: After 18 hours the supernatant is assayed for the levels of sTNF RII using a commercially available ELISA kit. The activity in the presence of 0.1 mM inhibitor or dilutions thereof is compared to activity in a control devoid of inhibitor.

collagenase-2 (MMP-8) = collagenase-2 (MMP-8) (Homo sapiens, UniProt P22894); test: MMP inhibition activity fluorimetric assay (Example A), MMP-8; format: biochemical; conditions: fluorimetric substrate 10 μM, 37° C.
Chain of collagenase-2 (MMP-8) (P22894 101-467, species assumed): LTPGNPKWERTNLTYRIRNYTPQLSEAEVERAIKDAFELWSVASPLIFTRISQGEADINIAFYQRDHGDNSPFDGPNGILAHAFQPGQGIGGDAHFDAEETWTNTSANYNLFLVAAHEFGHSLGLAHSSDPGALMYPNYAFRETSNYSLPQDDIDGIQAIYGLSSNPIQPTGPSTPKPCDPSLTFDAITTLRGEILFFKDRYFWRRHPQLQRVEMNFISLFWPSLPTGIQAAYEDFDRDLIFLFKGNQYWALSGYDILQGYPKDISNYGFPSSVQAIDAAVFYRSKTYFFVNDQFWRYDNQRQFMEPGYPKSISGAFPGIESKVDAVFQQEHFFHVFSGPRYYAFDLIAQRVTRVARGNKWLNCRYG
Method: as §1, §2, §3

[6] = system: sIL-1RII shedding by PBMC; test: Inhibition of sIL-1RII shedding (Example D); format: cell-based; conditions: read-out: Example D: inhibitor concentration effecting 50% inhibition of the shedding of sIL-1RII; PBMC stimulated with IL-13, 18 h, ELISA
Method: An assay of sIL-1RII shedding by PBMC is conducted as follows: PBMC are isolated from buffy coats by standard procedures using Ficoll. A 100 μM solution of the inhibitor being tested or dilutions thereof are incubated for 18 h at 37° C. in an atmosphere of 5% CO2 with 2×10^6/ml PBMC stimulated with IL-13. The cells are centrifuged down and the supernatants tested for sIL-1RII using a commercially available ELISA kit. The activity in the presence of 100 μM inhibitor or dilutions thereof is compared to activity in a control devoid of inhibitor.

Chain of stromelysin-1 (MMP-3) (P08254 100-477, species assumed): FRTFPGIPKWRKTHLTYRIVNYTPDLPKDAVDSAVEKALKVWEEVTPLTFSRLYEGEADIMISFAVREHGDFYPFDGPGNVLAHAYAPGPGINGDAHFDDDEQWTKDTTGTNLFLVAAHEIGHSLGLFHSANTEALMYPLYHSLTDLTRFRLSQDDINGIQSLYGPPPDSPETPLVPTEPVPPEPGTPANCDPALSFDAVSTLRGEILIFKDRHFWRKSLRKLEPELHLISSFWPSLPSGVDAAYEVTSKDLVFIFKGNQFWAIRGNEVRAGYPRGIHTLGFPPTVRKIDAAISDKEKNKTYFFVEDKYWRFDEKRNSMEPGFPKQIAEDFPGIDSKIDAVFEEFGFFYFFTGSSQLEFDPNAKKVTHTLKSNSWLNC

IC50 (stromelysin-1 (MMP-3))	IC50 (gelatinase-A (MMP-2))	IC50 (collagenase-1 (MMP-1))	IC50 (gelatinase-B (MMP-9))	IC50 [2]	IC50 (collagenase-3 (MMP-13))	IC50 [5]	IC50 (collagenase-2 (MMP-8))	Structure (SMILES)	IC50 [1]	Continuous clinical observation [3]	Histological observation of joints and tendons [3]	Plasma levels on repeated plasma sampling [3]	IC50 [4]	IC50 [6]
179 nM	15 nM	28 nM	5 nM	> 50000 nM	2 nM	> 50000 nM	9 nM	CNC(=O)[C@@H](NC(=O)[C@H](CC(C)C)NC(=O)[C@@H](S)CCCN1C(=O)c2ccccc2C1=O)C(C)(C)C [Cpd. 3, (S)-N-[2-mercapto-5-phthalimido]pentanoyl-L-leucyl-(S)-tert-leucine N-methylamide]	> 50000 nM	no adverse effects	no adverse effects on joints and tendons	sustained levels in excess of the enzymes' IC50	10000 nM	> 50000 nM
381 nM	130 nM	12 nM	53 nM	> 50000 nM	4 nM	> 50000 nM	10 nM	CNC(=O)[C@@H](NC(=O)[C@H](CC(C)C)NC(=O)[C@@H](S)CCN1C(=O)CCC1=O)C(C)(C)C [Ex. 1, 2S-[4-(2,5-Dioxopyrrolidin-1-yl)-2S-mercaptobutyrylamino]-4-methylpentanoic Acid (2,2-Dimethyl-1S-methylcarbamoylpropyl)-amide]	> 50000 nM	no adverse effects	no adverse effects on joints and tendons	sustained levels in excess of the enzymes' IC50	> 50000 nM	38000 nM
157 nM	41 nM	25 nM	25 nM	> 50000 nM	4 nM	> 50000 nM	10 nM	CNC(=O)[C@@H](NC(=O)[C@H](CC(C)C)NC(=O)[C@@H](S)CCN1C(=O)N(C)C(C)(C)C1=O)C(C)(C)C [Ex. 2, 2S-[2S-Mercapto-4-(3,4,4-trimethyl-2,5-dioxoimidazolidin-1-yl)butyrylamino]-4-methylpentanoic Acid (2,2-Dimethyl-1S-methylcarbamoylpropyl)amide]	> 50000 nM	no adverse effects	no adverse effects on joints and tendons	sustained levels in excess of the enzymes' IC50	> 50000 nM	> 50000 nM
